Laboratory results taken from article PMC7871173 (Journal of medicinal chemistry, 2019).
“Also recorded” adds a separate entry of the source.

How the values were obtained:
[1] = target: T1, CB1 receptor (Homo sapiens, UniProt P21554); assay: cell-based; conditions: read-out: Emax PAM, maximum EC20 CP 55,940-induced β-arrestin recruitment relative to maximum achievable with CP 55,940
[2] = target: T2, CB1 receptor (Mus musculus, UniProt P47746); assay: Augmentation of CP 55,940 antinociception in the tail withdrawal test; type: in vivo; conditions: 40 mg/kg
T2 sequence (P47746 whole entry): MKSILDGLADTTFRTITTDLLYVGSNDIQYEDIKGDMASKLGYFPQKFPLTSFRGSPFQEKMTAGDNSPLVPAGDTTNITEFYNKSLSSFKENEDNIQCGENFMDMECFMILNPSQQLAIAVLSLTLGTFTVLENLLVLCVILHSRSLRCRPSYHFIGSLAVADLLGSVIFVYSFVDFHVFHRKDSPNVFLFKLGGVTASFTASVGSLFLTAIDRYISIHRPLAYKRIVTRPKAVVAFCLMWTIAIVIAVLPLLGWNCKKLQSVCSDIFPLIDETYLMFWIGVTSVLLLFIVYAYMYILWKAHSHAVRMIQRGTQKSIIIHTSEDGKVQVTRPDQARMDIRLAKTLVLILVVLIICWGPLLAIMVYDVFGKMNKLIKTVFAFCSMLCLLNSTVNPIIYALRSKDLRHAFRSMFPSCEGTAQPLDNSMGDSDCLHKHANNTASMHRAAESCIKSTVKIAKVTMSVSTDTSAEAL

[3] = target: T2, CB1 receptor; conditions: for activity in the tetrad or psychoactive effects: see Supporting Information
[4] = target: T1, CB1 receptor; type: cell-based; conditions: for CB1 PAM activity (in words): enhancement of CP 55,940-induced β-arrestin recruitment; for enhancement of CP 55,940-induced β-arrestin recruitment: at 300 nM
[5] = target: T1, CB1 receptor; type: cell-based; conditions: compound alone; relative to maximum achievable with CP 55,940
[6] = target: T1, CB1 receptor; type: binding; conditions: 1 μM compound; for % enhancement of [3H]CP 55,940 binding: three independent experiments
[7] = tested on: mouse chronic constrictive injury of the sciatic nerve (CCI) model of neuropathic pain; conditions: 40 mg/kg; cited from earlier work
[8] = in vitro; conditions: rat, rat liver microsomes
[9] = Mouse liver microsomal stability; type: in vitro ADME; conditions: mouse liver microsomes
[10] = compared to nearest nitro analogue

T1 sequence (P21554 whole entry): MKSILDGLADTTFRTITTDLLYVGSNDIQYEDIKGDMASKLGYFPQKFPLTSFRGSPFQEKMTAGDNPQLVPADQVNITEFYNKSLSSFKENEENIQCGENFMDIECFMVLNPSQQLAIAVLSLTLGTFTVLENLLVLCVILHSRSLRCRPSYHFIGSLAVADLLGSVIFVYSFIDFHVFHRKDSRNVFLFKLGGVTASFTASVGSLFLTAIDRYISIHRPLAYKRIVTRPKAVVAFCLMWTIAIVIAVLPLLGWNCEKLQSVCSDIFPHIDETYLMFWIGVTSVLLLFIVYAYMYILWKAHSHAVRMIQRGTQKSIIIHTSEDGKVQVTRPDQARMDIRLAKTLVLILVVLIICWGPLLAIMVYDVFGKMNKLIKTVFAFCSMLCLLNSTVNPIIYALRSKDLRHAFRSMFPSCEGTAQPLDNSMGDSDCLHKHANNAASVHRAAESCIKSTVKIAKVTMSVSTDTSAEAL

N#Cc1ccc2c(C(CC(F)(F)F)c3cccs3)c(-c3ccccc3)[nH]c2c1 (racemic) [(±)-1, 2-Phenyl-3-(3,3,3-trifluoro-1-(thiophen-2-yl)propyl)-1H-indole-6-carbonitrile]
Emax [1]: 100 ± 25% | shift of dose–response relationship of CP 55,940 in producing antinociception [2]: significant leftward shifts | antinociception in the tail withdrawal test ([3]; 40 mg/kg, administered alone): did not produce antinociception | hypothermia ([3]; 40 mg/kg, administered alone): did not produce hypothermia | immobility in the catalepsy bar test ([3]; 40 mg/kg, administered alone): did not produce hypothermia or cause immobility in the catalepsy bar test | locomotor behavior (distance traveled, immobility time) ([3]; 40 mg/kg, administered alone): did not affect either the distance traveled or immobility time | pharmacological effects in the tetrad assay ([3]; 40 mg/kg, administered alone): did not elicit pharmacological effects | activity in the tetrad or psychoactive effects [3]: neither ZCZ011 or (±)-1 showed any activity in the tetrad or psychoactive effects

N#Cc1ccc2c(C(C[N+](=O)[O-])c3cccs3)c(-c3ccccc3)[nH]c2c1 (racemic) [(±)-8]
CB1 PAM activity (in words) [4]: moderately potent and efficacious CB1 PAMs

N#Cc1ccc2c(C(C[N+](=O)[O-])c3cccs3)c(-c3ccccc3)[nH]c2c1 (single isomer, unassigned; (+)) [(+)-8]
Emax Ago [5]: 6% | CB1 PAM activity (in words) [4]: effectively pure PAMs | enhancement in binding of [3H]CP 55,940 (in words) [6]: no enhancement

N#Cc1ccc2c(C(C[N+](=O)[O-])c3cccs3)c(-c3ccccc3)[nH]c2c1 (single isomer, unassigned; (-)) [(−)-8]
CB1 PAM activity (in words) [4]: effectively pure PAMs | enhancement in binding of [3H]CP 55,940 (in words) [6]: no enhancement

N#Cc1ccc2c([C@@H](CC(F)(F)F)c3cccs3)c(-c3ccccc3)[nH]c2c1 [(R)-(−)-1]
Emax [1]: 125 ± 29% | enhancement in binding of [3H]CP 55,940 (in words) [6]: significant enhancement | % enhancement of [3H]CP 55,940 binding [6]: 131.4 ± 4.3%

N#Cc1ccc2c([C@H](CC(F)(F)F)c3cccs3)c(-c3ccccc3)[nH]c2c1 [(S)-(+)-1]
Emax [1]: 79 ± 32% | enhancement in binding of [3H]CP 55,940 (in words) [6]: significant enhancement | % enhancement of [3H]CP 55,940 binding [6]: 144.4 ± 3.5%

Cc1ccc2[nH]c(-c3ccccc3)c(C(C[N+](=O)[O-])c3cccs3)c2c1 (stereo not shown) [Compound 2]
CB1 PAM activity (in words) [4]: poor potency

N#Cc1ccc2[nH]c(-c3ccccc3)c(C(C[N+](=O)[O-])c3cccs3)c2c1 (stereo not shown) [Compound 3]
CB1 PAM activity (in words) [4]: poor potency

O=[N+]([O-])CC(c1cccs1)c1c(-c2ccccc2)[nH]c2ccc([N+](=O)[O-])cc12 (stereo not shown) [Compound 4]
CB1 PAM activity (in words) [4]: poor potency

Cc1ccc2c(C(C[N+](=O)[O-])c3cccs3)c(-c3ccccc3)[nH]c2c1 (stereo not shown) [Compound 5, reference compound]
CB1 PAM activity (in words) [4]: moderately potent and efficacious CB1 PAMs | anti-allodynic effects [7]: produces anti-allodynic effects | half-life [8]: ≤ 10 min | half-life [9]: ≤ 10 min | enhancement in binding of [3H]CP 55,940 (in words) [6]: significant enhancement | activity in the tetrad or psychoactive effects [3]: neither ZCZ011 or (±)-1 showed any activity in the tetrad or psychoactive effects

O=[N+]([O-])CC(c1cccs1)c1c(-c2ccccc2)[nH]c2cc(Cl)ccc12 (stereo not shown) [Compound 6]
CB1 PAM activity (in words) [4]: moderately potent and efficacious CB1 PAMs

O=[N+]([O-])CC(c1cccs1)c1c(-c2ccccc2)[nH]c2cc(C(F)(F)F)ccc12 (stereo not shown) [Compound 7]
CB1 PAM activity (in words) [4]: moderately potent and efficacious CB1 PAMs

Cc1ccc2c(C(CC#N)c3ccccc3)c(-c3ccccc3)[nH]c2c1 (stereo not shown) [Compound 30]
CB1 PAM activity (in words) [4]: modest

N#CCC(c1ccccc1)c1c(-c2ccccc2)[nH]c2cc(Cl)ccc12 (stereo not shown) [Compound 31]
CB1 PAM activity (in words) [4]: somewhat reduced potency and efficacy | metabolic stability in rat liver microsomes (in words) [10]: similarly poor metabolic stability

Cc1ccc2c(C(c3ccccc3)C(C#N)C#N)c(-c3ccccc3)[nH]c2c1 (stereo not shown) [Compound 32]
CB1 PAM activity (in words) [4]: modest

Cc1ccc2c(C(C(=O)C(F)(F)F)c3ccccc3)c(-c3ccccc3)[nH]c2c1 (stereo not shown) [Compound 38]
enhancement of CP 55,940-induced β-arrestin recruitment [4]: 50–100%

Cc1ccc2c(C(CC(F)(F)F)c3ccccc3)c(-c3ccccc3)[nH]c2c1 (stereo not shown) [Compound 39]
enhancement of CP 55,940-induced β-arrestin recruitment [4]: 50–100%

O=C(O)c1ccc2c(C(CC(F)(F)F)c3cccs3)c(-c3ccccc3)[nH]c2c1 (stereo not shown) [Compound 51]
CB1 PAM activity (in words) [4]: none of 6-CO2H (51), 6-CH2OH (52), 6-NHAc (53), 6-NH2 (55), or 6-NHSO2Me (56) gave active compounds; also recorded: inactive

OCc1ccc2c(C(CC(F)(F)F)c3cccs3)c(-c3ccccc3)[nH]c2c1 (stereo not shown) [Compound 52, (2-Phenyl-3-(3,3,3-trifluoro-1-(thiophen-2-yl)propyl)-1H-indol-6-yl)methanol]
CB1 PAM activity (in words) [4]: none of 6-CO2H (51), 6-CH2OH (52), 6-NHAc (53), 6-NH2 (55), or 6-NHSO2Me (56) gave active compounds

CC(=O)Nc1ccc2c(C(CC(F)(F)F)c3cccs3)c(-c3ccccc3)[nH]c2c1 (stereo not shown) [Compound 53, N-(2-Phenyl-3-(3,3,3-trifluoro-1-(thiophen-2-yl)propyl)-1H-indol-6-yl)acetamide]
CB1 PAM activity (in words) [4]: none of 6-CO2H (51), 6-CH2OH (52), 6-NHAc (53), 6-NH2 (55), or 6-NHSO2Me (56) gave active compounds

CC(=O)c1ccc2c(C(CC(F)(F)F)c3cccs3)c(-c3ccccc3)[nH]c2c1 (stereo not shown) [Compound 54, 1-(2-Phenyl-3-(3,3,3-trifluoro-1-(thiophen-2-yl)propyl)-1H-indol-6-yl)ethan-1-one]
CB1 PAM activity (in words) [4]: potent and efficacious

Nc1ccc2c(C(CC(F)(F)F)c3cccs3)c(-c3ccccc3)[nH]c2c1 (stereo not shown) [Compound 55, 2-Phenyl-3-(3,3,3-trifluoro-1-(thiophen-2-yl)propyl)-1H-indol-6-amine]
CB1 PAM activity (in words) [4]: none of 6-CO2H (51), 6-CH2OH (52), 6-NHAc (53), 6-NH2 (55), or 6-NHSO2Me (56) gave active compounds

CS(=O)(=O)Nc1ccc2c(C(CC(F)(F)F)c3cccs3)c(-c3ccccc3)[nH]c2c1 (stereo not shown) [Compound 56, N-(2-Phenyl-3-(3,3,3-trifluoro-1-(thiophen-2-yl)propyl)-1H-indol-6-yl)methanesulfonamide]
CB1 PAM activity (in words) [4]: none of 6-CO2H (51), 6-CH2OH (52), 6-NHAc (53), 6-NH2 (55), or 6-NHSO2Me (56) gave active compounds
